Experimental data reported in patent US4329460A, “Uracil derivatives and production thereof” (Takeda Chemical Industries, Ltd., priority 1976, dated 1982).
≈ marks a conversion by molar mass, not a printed value.

How the values were obtained:
leukemia P 388 = assay: life-prolonging effect upon leukemia P 388 in mice; type: in vivo, BDF1 mice; conditions: intraperitoneal, median survival time treated/control
Method: (1) The procedure of a test on the life-prolonging effect upon leukemia P 388 in mice
One tenth ml of diluted ascitic fluid containing 1×10^5 cells was implanted in BDF1 mice weighing 18 to 25 g. A suspension of the test-compound is injected intraperitoneally at a constant rate of volume of 0.1 ml/10 g body weight. As the detailed experimental method, the Protocols for Screening Chemical Agents (Geran, R. I., Greenberg, N. H., Macdonald, M. M., Schumacher, A. M., and Abbott, B. J.: Protocols for Screening Chemical Agents and Natural Products against Animal Tumors and Other Biological Systems. Cancer Chemotherapy Rept., 3 (Part 3) 7, 1972) is adopted.
The results are recorded in compliance to the T/C % value calculated on the basis of the median survival time of treated to control animals.

KB cells = assay: Inhibition of KB cell multiplication; type: cell-based; conditions: Homo sapiens, 72 h, cell count on 4th day after seeding, read-out: ED50, inhibition of cell growth
Method: (1) Inhibition of KB cell multiplication
2×10^4 cells were suspended in 1 ml of Eagle's Minimal Essential Medium (MEM)+10% fetal calf serum (MEM.10 Fcs) and seeded in a glass dish (d=1.8 cm) containing a round coverslip (d=1.5 cm).
On the first day after seeding, three coverslips (per test group) were taken out and transferred to a single glass dish (d=4.5 cm) holding 5 ml of MEM.10 Fcs containing a verying concentration of the compound. On the 4th day after seeding, the number of cells per coverslip (3 slips for each concentration level) was determined with a Coulter counter. The result was expressed in the concentration of the drug giving a cell count of 50% (ED50) with the average number of cells for the control (not medicated) group on the 4th day being taken as 100%.

BAV3-infected C34 cells = assay: Inhibition of the induction of cell multiplication in BAV3-infected C34 cells; type: cell-based; conditions: Mus musculus, 96 h, (V-M) difference on 6th day after seeding, read-out: ED50, inhibition of cell growth
Method: (2) Inhibition of the induction of cell multiplication in BAV3-infected C34 cells
1×10^5 cells were suspended in 1 ml of Eagle's MEM+10% fetal calf serum (MEM.10 Fcs) and seeded in a glass dish (d=1.8 cm) containing a round coverslip (d=1.5 cm).
On the 2nd day after seeding, infection (37° C., 120 min.) (mock-infection or virus infection; in the case of the latter, multiplicity of infection per cell=100-200 PFU/cell) was carried out. After this operation, one test group (3 coverslips) was taken out and transferred to a glass dish (d=4.5 cm) holding 5 ml of MEM.2 Fcs containing each concentration of compound.
On the 6th day after seeding, the number of cells per coverslip was determined with a Coulter counter. For each experimental group, the difference in all members between virus-infected cells (V) and mock-infected cells (M) was calculated. The result was expressed in the concentration of the drug giving a (V-M) value of 50% (ED50) for the control (not medicated) group as 100%.

AC cells = assay: Inhibition of AC cell multiplication; type: cell-based; conditions: Rattus norvegicus, 72 h, cell count on 3rd day following replacement of medium, read-out: ED50, inhibition of cell growth
Method: (3) Inhibition of Ac cell multiplication
1×10^5 AC cells (2 ml of Eagle's MEM, with 10% fetal calf serum were seeded in a Falcon dish (in. diam. 3.5 cm). On the 24th hour, replacement was made with the above culture medium containing a varying concentration of drug. The number of cells was determined on the 3rd day following the replacement of medium. The pharmacologic effect was expressed in ED50 (the concentration of the drug giving a cell count of 50% for the treated group with the number of cells for the control group being taken as 100%.

## CCOC(=O)C1(F)C(=O)NC(=O)NC1OCC (centres unmarked) [ethyl 5-fluoro-6-ethoxy-1,2,3,4,5,6-hexahydro-2,4-dioxopyrimidine-5-carboxylate]
Leukemia P 388; 50 mg/kg/day
  T/C(%): 130%
Leukemia P 388; 100 mg/kg/day
  T/C(%): 143%
Leukemia P 388; 200 mg/kg/day
  T/C(%): 160%
KB cells
  IC50: 2.8 µg/mL (≈ 11.3 µM)
BAV3-infected C34 cells
  IC50: 0.023 µg/mL (≈ 0.0927 µM)

## COC(=O)C1(F)C(=O)NC(=O)NC1OC (centres unmarked) [methyl 5-fluoro-6-methoxy-1,2,3,4,5,6-hexahydro-2,4-dioxopyrimidine-5-carboxylate]
Leukemia P 388; 50 mg/kg/day
  T/C(%): 208%
Leukemia P 388; 100 mg/kg/day
  T/C(%): 217%
Leukemia P 388; 200 mg/kg/day
  T/C(%): 243%
KB cells
  IC50: 3 µg/mL (≈ 13.6 µM)
BAV3-infected C34 cells
  IC50: 0.023 µg/mL (≈ 0.104 µM)
AC cells
  IC50: 0.12 µg/mL (≈ 0.545 µM)
